From the NIST ThermoML archive (doi:10.1021/je1003065)

Experiment: mn = molality of the nth substance listed, in mol/kg
Details: Liquid, Vibrating tube method

[Br-].[Li+] [lithium bromide] + CCO
Details	mass density [kg/m3]
333.09 K, 10272 kPa, m1 = 2.272	902.05
333.1 K, 20223 kPa, m1 = 1.462	864.16
333.11 K, 2291 kPa, m1 = 1.462	848.63
333.11 K, 9932 kPa, m1 = 1.462	855.51
333.11 K, 29979 kPa, m1 = 1.462	871.75
333.12 K, 5163 kPa, m1 = 1.462	851.27
333.12 K, 39966 kPa, m1 = 1.462	878.97
333.12 K, 49993 kPa, m1 = 1.462	885.74
333.12 K, 59791 kPa, m1 = 1.462	891.94
333.12 K, 69993 kPa, m1 = 1.462	898.03
333.12 K, 79815 kPa, m1 = 1.462	903.61
333.12 K, 89925 kPa, m1 = 1.462	909.13
333.12 K, 100027 kPa, m1 = 1.462	914.48
333.13 K, 2335 kPa, m1 = 2.272	895.03
333.13 K, 10112 kPa, m1 = 0.5972	803.35
333.13 K, 79924 kPa, m1 = 0.2335	831.2
333.14 K, 1023 kPa, m1 = 0.2335	771.66
333.14 K, 1618 kPa, m1 = 3.368	952.85
333.14 K, 5026 kPa, m1 = 2.833	927.9
333.14 K, 19985 kPa, m1 = 0.2335	789.05
333.14 K, 40021 kPa, m1 = 2.833	953.59
333.14 K, 80002 kPa, m1 = 2.833	976.7
333.15 K, 1032 kPa, m1 = 2.833	924.49
333.15 K, 1267 kPa, m1 = 0.9499	816.76
333.15 K, 1305 kPa, m1 = 0.9499	816.8
333.15 K, 2100 kPa, m1 = 0.5972	796.01
333.15 K, 5177 kPa, m1 = 2.272	897.13
333.15 K, 5214 kPa, m1 = 0.9499	820.56
333.15 K, 5223 kPa, m1 = 0.5972	798.91
333.15 K, 9985 kPa, m1 = 2.833	931.98
333.15 K, 10026 kPa, m1 = 0.2335	780.15
333.15 K, 19923 kPa, m1 = 0.9499	833.66
333.15 K, 29942 kPa, m1 = 0.9499	841.73
333.15 K, 29965 kPa, m1 = 2.833	946.88
333.15 K, 40014 kPa, m1 = 0.9499	849.24
333.15 K, 49925 kPa, m1 = 2.833	959.77
333.15 K, 50021 kPa, m1 = 0.2335	812.76
333.15 K, 50078 kPa, m1 = 0.9499	856.2
333.15 K, 59924 kPa, m1 = 0.9499	862.57
333.15 K, 60012 kPa, m1 = 0.2335	819.01
333.15 K, 60159 kPa, m1 = 0.5972	841.68
333.15 K, 69784 kPa, m1 = 2.833	971.18
333.15 K, 69794 kPa, m1 = 0.9499	868.58
333.15 K, 69985 kPa, m1 = 0.2335	825.32
333.15 K, 79935 kPa, m1 = 0.9499	874.45
333.15 K, 89956 kPa, m1 = 2.833	981.93
333.15 K, 89965 kPa, m1 = 0.2335	837.01
333.15 K, 89984 kPa, m1 = 0.9499	880.02
333.15 K, 99907 kPa, m1 = 2.272	958.17
333.15 K, 99958 kPa, m1 = 0.2335	842.17
333.15 K, 99967 kPa, m1 = 2.833	987.14
333.15 K, 99986 kPa, m1 = 0.9499	885.41
333.16 K, 5021 kPa, m1 = 0.2335	775.49
333.16 K, 19968 kPa, m1 = 2.833	939.71
333.16 K, 20295 kPa, m1 = 0.5972	812.23
333.16 K, 29945 kPa, m1 = 0.2335	797.44
333.16 K, 29996 kPa, m1 = 0.5972	820.22
333.16 K, 49994 kPa, m1 = 0.5972	835.21
333.16 K, 59945 kPa, m1 = 2.833	965.67
333.16 K, 69994 kPa, m1 = 0.5972	847.73
333.16 K, 80063 kPa, m1 = 0.5972	854.04
333.16 K, 89993 kPa, m1 = 0.5972	859.28
333.16 K, 100035 kPa, m1 = 0.5972	864.08
333.17 K, 39784 kPa, m1 = 0.2335	805.21
333.17 K, 40191 kPa, m1 = 0.5972	828.11
333.17 K, 89994 kPa, m1 = 2.272	952.98
333.17 K, 99575 kPa, m1 = 3.368	1013.64
333.18 K, 19918 kPa, m1 = 3.368	967.06
333.18 K, 20737 kPa, m1 = 2.272	910.39
333.18 K, 29946 kPa, m1 = 3.368	974.09
333.18 K, 29993 kPa, m1 = 2.272	917.22
333.18 K, 39652 kPa, m1 = 3.368	980.47
333.18 K, 40158 kPa, m1 = 2.272	924.19
333.18 K, 49954 kPa, m1 = 2.272	930.45
333.18 K, 49993 kPa, m1 = 3.368	986.85
333.18 K, 59593 kPa, m1 = 3.368	992.46
333.18 K, 60271 kPa, m1 = 2.272	936.65
333.18 K, 69927 kPa, m1 = 3.368	998.21
333.18 K, 69979 kPa, m1 = 2.272	942.19
333.18 K, 79359 kPa, m1 = 2.272	947.33
333.18 K, 79861 kPa, m1 = 3.368	1003.51
333.18 K, 89946 kPa, m1 = 3.368	1008.74
333.19 K, 5051 kPa, m1 = 3.368	955.66
333.19 K, 9894 kPa, m1 = 3.368	959.51
348.13 K, 29954 kPa, m1 = 0.2335	785.62
348.13 K, 59964 kPa, m1 = 2.833	956.11
348.14 K, 9989 kPa, m1 = 2.833	920.29
348.14 K, 10032 kPa, m1 = 0.2335	766.83
348.14 K, 10035 kPa, m1 = 0.5972	790.37
348.14 K, 19956 kPa, m1 = 2.272	898.47
348.14 K, 19956 kPa, m1 = 3.368	955.83
348.14 K, 29914 kPa, m1 = 0.5972	809.07
348.14 K, 30021 kPa, m1 = 1.462	860.82
348.14 K, 39925 kPa, m1 = 2.272	913.47
348.14 K, 50012 kPa, m1 = 0.5972	824.77
348.14 K, 69957 kPa, m1 = 3.368	988.75
348.14 K, 79624 kPa, m1 = 2.272	938.32
348.14 K, 89957 kPa, m1 = 0.5972	850.38
348.15 K, 1002 kPa, m1 = 0.5972	781.38
348.15 K, 1002 kPa, m1 = 3.368	940.13
348.15 K, 1003 kPa, m1 = 2.272	881.25
348.15 K, 1024 kPa, m1 = 0.2335	757.55
348.15 K, 1035 kPa, m1 = 2.833	912.41
348.15 K, 1304 kPa, m1 = 0.9499	803.97
348.15 K, 2021 kPa, m1 = 1.462	835.77
